The text below walks through data of patent US20170022171A1, “2,5-DISUBSTITUTED CYCLOPENTANECARBOXYLIC ACIDS AND THEIR USE” (Bayer Pharma Aktiengesellschaft, priority 2014, published 2017).

What all share (type): biochemical
For one experiment, the target named is T1, mouse MMP-8 (Mus musculus, UniProt O70138).
T1 construct: purchased R&D Systems 2904-MP
The experiment can be described thus: In vitro mouse MMP-8 inhibition test.

For another experiment, the target named is T2, MMP-3 (Homo sapiens, UniProt P08254).
T2 construct: purchased R&D Systems 513-MP
Nature of the experiment: In vitro MMP-3 inhibition test. Summed up:
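APMA-activated recombinant MMP-3 (e.g. 2 nM final) preincubated with compound in 50 mM Tris/HCl pH 7.5, 10 mM CaCl2, 150 mM NaCl, 0.05% Brij-35; quenched Mca/Dnp peptide substrate (e.g. 10 μM) started the reaction. Fluorescence (ex 320/em 410 nm) followed e.g. 120 min at 32° C; IC50 at 50% signal.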

The target of the next experiment is T3, MMP-8 (Homo sapiens, UniProt P22894).
T3 construct: purchased R&D Systems 908-MP
Nature of the experiment: In vitro MMP-8 inhibition test. Summed up: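 APMA-activated recombinant MMP-8 (final e.g. 0.5 nM) preincubated with compound in DMSO (e.g. 1 nM–30 μM) in 50 mM Tris/HCl pH 7.5, 10 mM CaCl2, 150 mM NaCl, 0.05% Brij-35. Reaction started with quenched Mca-Pro-Leu-Gly-Leu-Dpa(Dnp)-Ala-Arg-NH2 substrate (e.g. 10 μM); fluorescence (ex 320/em 410 nm) followed e.g. 120 min at 32° C; IC50 at 50% signal.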

A further experiment deals with T4, MMP-9 (Homo sapiens, UniProt P14780).
T4 construct: purchased R&D Systems 911-MP
Nature of the experiment: In vitro MMP-9 inhibition test. Summed up:
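Recombinant MMP-9 was APMA-activated and used at e.g. 0.1 nM final in 50 mM Tris/HCl pH 7.5, 10 mM CaCl2, 150 mM NaCl, 0.05% Brij-35, with compound at e.g. 1 nM to 30 μM. Quenched Mca-Pro-Leu-Gly-Leu-Dpa(Dnp)-Ala-Arg-NH2 substrate (e.g. 10 μM) was followed by fluorescence (ex 320/em 410 nm), e.g. 120 min at 32 °C. IC50 corresponds to 50% signal.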

The target in a further experiment is T5, mouse MMP-12 (Mus musculus, UniProt P34960).
T5 construct: purchased R&D Systems 3467-MP
The experiment can be described thus: In vitro mouse MMP-12 inhibition test (standard or high-sensitivity).

Each structure is given as a SMILES string.

T5 sequence (P34960 110-473): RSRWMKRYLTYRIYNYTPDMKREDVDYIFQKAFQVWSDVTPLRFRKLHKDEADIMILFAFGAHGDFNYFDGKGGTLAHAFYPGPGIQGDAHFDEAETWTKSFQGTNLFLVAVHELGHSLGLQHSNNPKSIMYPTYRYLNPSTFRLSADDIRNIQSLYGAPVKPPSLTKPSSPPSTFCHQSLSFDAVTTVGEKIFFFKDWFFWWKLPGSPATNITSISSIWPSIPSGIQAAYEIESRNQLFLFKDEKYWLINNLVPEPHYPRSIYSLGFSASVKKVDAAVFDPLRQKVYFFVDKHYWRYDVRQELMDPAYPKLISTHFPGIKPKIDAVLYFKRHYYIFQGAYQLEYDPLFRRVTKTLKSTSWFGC
T3 sequence (P22894 101-467): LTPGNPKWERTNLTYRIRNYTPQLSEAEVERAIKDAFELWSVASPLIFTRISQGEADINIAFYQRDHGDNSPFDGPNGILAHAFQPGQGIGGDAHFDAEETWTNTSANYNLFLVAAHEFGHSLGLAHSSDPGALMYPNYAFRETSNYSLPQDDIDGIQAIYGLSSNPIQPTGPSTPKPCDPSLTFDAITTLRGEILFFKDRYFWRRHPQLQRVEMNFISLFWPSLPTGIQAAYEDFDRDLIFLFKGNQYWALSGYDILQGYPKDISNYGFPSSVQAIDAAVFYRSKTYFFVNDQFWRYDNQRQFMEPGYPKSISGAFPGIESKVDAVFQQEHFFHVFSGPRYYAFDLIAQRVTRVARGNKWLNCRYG
T4 sequence (P14780 107-707 limits assumed): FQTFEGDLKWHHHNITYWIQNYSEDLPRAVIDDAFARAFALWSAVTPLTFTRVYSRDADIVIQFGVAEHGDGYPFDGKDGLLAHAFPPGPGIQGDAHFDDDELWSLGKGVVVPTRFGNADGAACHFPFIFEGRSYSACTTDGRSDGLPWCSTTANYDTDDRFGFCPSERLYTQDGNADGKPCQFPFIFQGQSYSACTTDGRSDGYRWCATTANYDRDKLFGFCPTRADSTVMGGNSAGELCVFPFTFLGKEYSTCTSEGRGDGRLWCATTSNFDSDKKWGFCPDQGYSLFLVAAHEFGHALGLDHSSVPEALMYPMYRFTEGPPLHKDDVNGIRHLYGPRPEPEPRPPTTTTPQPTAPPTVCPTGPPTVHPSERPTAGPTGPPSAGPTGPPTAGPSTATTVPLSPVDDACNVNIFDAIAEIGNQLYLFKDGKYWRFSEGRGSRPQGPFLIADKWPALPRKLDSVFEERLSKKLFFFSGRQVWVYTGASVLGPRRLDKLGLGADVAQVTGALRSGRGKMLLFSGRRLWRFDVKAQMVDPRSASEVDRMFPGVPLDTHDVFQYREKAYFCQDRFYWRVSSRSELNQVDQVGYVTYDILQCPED
T1 sequence (O70138 101-465): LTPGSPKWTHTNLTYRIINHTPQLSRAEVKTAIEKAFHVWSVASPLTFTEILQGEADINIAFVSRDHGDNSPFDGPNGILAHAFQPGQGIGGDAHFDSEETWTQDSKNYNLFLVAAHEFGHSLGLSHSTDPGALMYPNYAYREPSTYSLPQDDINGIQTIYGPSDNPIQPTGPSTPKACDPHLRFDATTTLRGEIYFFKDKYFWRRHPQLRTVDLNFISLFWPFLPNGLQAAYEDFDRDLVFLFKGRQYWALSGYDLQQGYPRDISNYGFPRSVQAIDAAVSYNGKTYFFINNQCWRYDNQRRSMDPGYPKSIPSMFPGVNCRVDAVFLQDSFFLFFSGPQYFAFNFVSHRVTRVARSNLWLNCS
T2 sequence (P08254 100-477): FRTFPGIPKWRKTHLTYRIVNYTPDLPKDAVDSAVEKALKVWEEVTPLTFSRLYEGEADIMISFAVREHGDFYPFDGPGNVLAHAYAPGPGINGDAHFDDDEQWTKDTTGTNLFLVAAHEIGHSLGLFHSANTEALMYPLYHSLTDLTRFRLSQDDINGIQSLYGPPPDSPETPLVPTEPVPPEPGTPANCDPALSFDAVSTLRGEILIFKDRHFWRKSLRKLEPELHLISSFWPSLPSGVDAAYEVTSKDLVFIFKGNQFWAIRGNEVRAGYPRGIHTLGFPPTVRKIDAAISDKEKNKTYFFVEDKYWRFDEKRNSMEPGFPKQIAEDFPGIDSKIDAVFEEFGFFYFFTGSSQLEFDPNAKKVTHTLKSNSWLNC

What is called IC50 is the concentration needed to halve the response being measured. High values mean weaker potency in that assay, low ones greater potency in that assay. For the molecule `Cc1ccc2nnn(C[C@H]3CC[C@@H](C(=O)c4ccc(OCc5ccccc5)cc4)[C@@H]3C(=O)O)c(=O)c2c1` (single isomer, unassigned) [Example 92, (+)-(1RS,2RS,5SR)-2-[4-(Benzyloxy)benzoyl]-5-[(6-methyl-4-oxo-1,2,3-benzotriazin-3(4H)-yl)methyl]cyclopentanecarboxylic acid], the IC50 is 16 nM against mouse MMP-8; 150 nM against MMP-3; 2.4 nM at MMP-8; 13 nM against MMP-9; 0.42 nM against mouse MMP-12.

For the molecule `Cc1cccc(COc2ccc(C(=O)[C@@H]3CC[C@H](Cn4nnc5ccc(C)cc5c4=O)[C@H]3C(=O)O)cc2)c1` (single isomer, unassigned) [Example 98, (+)-(1RS,2RS,5SR)-2-{4-[(3-Methylbenzyl)oxy]benzoyl}-5-[(6-methyl-4-oxo-1,2,3-benzotriazin-3(4H)-yl)methyl]cyclopentanecarboxylic acid], the IC50 at mouse MMP-8 was found to be 280 nM; at MMP-3 it was 680 nM; at MMP-8, 64 nM; against MMP-9, 280 nM; at mouse MMP-12 it was 1.2 nM.

Consider `Cc1ccc2nnn(C[C@@H]3CC[C@H](C(=O)c4ccc(OCc5ccccc5)cc4)[C@H]3C(=O)O)c(=O)c2c1` (racemic) [Example 91, (+/−)-(1RS,2RS,5SR)-2-[4-(Benzyloxy)benzoyl]-5-[(6-methyl-4-oxo-1,2,3-benzotriazin-3(4H)-yl)methyl]cyclopentanecarboxylic acid], for which the IC50 stood at 26 nM against mouse MMP-8; 190 nM against MMP-3; 3 nM on MMP-8; 21 nM at MMP-9; 0.86 nM against mouse MMP-12.

For `O=C(O)[C@H]1[C@H](Cn2nnc3ccccc3c2=O)CC[C@@H]1C(=O)c1ccc(OCC2CCCC2)cc1` (racemic) [Example 4, (+/−)-(1RS,2RS,5SR)-2-[4-(Cyclopentylmethoxy)benzoyl]-5-[(4-oxo-1,2,3-benzotriazin-3(4H)-yl)methyl]cyclopentanecarboxylic acid], the IC50 came to 42 nM against mouse MMP-8; 1100 nM against MMP-3; 14 nM against MMP-8; 130 nM against MMP-9; 1.4 nM against mouse MMP-12.
